In PubChem BioAssay AID2060907 (Molecular Pharmacology Branch, DTP, NCI, 2025):

System: 388556-164-R-J1-PDC complex spheroid viability
Assay: Anticancer human tumor 388556-164-R-J1-PDC patient-derived colon adenocarcinoma cell line growth inhibition [RAS]
Conditions: for IC50: curve of first compound; for viability, T/C: stronger effect = lower value
Source text: RAS pathway inhibitors in Combinations in Complex Spheroids
A high-throughput screen of multi-cell type tumor spheroids was designed to identify active combinations of RAS pathway inhibitors and targeted small molecules. Complex spheroids include a stromal component modeled by human endothelial cells (HUVEC) and fibroblasts modeled by human mesenchymal stem cells (MSCs). The concentration ranges selected for each drug and investigational agent were based upon clinically achievable concentrations if the clinical Cmax of the agent was known.
Compounds. The drugs and investigational agents: abemaciclib (NSC768073), cobimetinib (NSC768068), divarasib (GDC6063, NSC841802), docetaxel (NSC628503), GDC-1971 (RLY-1971, NSC841576), gemcitabine (NSC613327), inavolisib (NSC800729), ipatasertib (NSC767898), KB-0742 (NSC834161), MRTX-1133 (NSC836407), osimertinib (NSC779217), RMC-4630 (NSC839698), RMC-6236 (NSC851965), RMC-6291 (NSC852671), Ro-3306 (NSC812927), sapanisertib (NSC764658), SN-38 (NSC673596), staurosporine (NSC755774), SY5609 (NSC837396), and tovorafenib (DAY101, NSC766906), were obtained from the National Cancer Institute (NCI) Developmental Therapeutics Program Chemical Repository. The FDA-approved anticancer drug set is available from the NCI Developmental Therapeutics Program. […] The stock solutions were prepared in dimethyl sulfoxide (DMSO, Sigma-Aldrich, St. Louis, MO, cat. D2650) at 800-fold the tested concentration and stored at -70 degrees C prior to their use. All drugs and investigational agents were tested over a range starting from a high concentration at or near the clinical Cmax and decreasing in half-log increments. If the clinical Cmax for an agent had not been determined, the highest concentration tested was 10 microM.
Cell Culture. All cells were maintained in an incubator at 37 degrees C and 5% CO2 with 95% humidity. The PDC lines were cultured according to standard operating procedures established by the NCI PDMR. All PDCs were thawed and cultured in Matrigel-coated flasks prepared with a working solution of 1X Ham's F-12 nutrient mix, without supplementation (Invitrogen, Waltham, MA, cat. 11765054), 100 U/mL penicillin-streptomycin (Invitrogen, cat. 15140122), and 2.5% Matrigel (Corning Inc., Corning, NY, cat. 354248) for the first three passages. The 362531-283-R-J2-PDC and 782815-120-R-J1-PDC lines were cultured in 6C/Colon 1B media, which includes advanced DMEM/F-12 (Thermo Fisher Scientific, cat. 12634028), 10 mM HEPES (Thermo Fisher Scientific, cat. 15630080), 1X GlutaMAX supplement (Thermo Fisher Scientific, cat. 35050061), 0.1 mg/mL primocin (InvivoGen, San Diego, CA, cat. ant-pm-2), 10% defined fetal bovine serum, heat inactivated (HyClone Laboratories Inc., Logan, UT, cat. SH30070.03HI), 50% L-WRN conditioned media (ATCC, cat. CRL-3276), 1.25 mM N-Acetyl-L-cysteine (Sigma-Aldrich, cat. A9165), 10 mM nicotinamide (Sigma-Aldrich, cat. N0636), 1X B-27 supplement (Thermo Fisher Scientific, cat. 17504044), 1X N-2 supplement (Thermo Fisher Scientific, cat. 17502048), 50 ng/mL human EGF (Thermo Fisher Scientific, cat. PHG0311), and 10 microM Y-27632 dihydrochloride (Tocris Bioscience, cat. 1254). The K12877-001-R-J1-PDC line was cultured in 6I media, which includes all 6C/Colon 1B media plus 10 ng/mL human FGF-10 (PeproTech, cat. 100-26), 1 ng/mL human FGF-2 (PeproTech, cat. 100-18B), 1 µM prostaglandin E2 (Tocris Bioscience, cat. 2296), […] hydrocortisone (Sigma-Aldrich, cat. H4001), and […] bovine insulin (Sigma-Aldrich, cat. I6634). The K86415-001-R-J1-PDC line was cultured in 6D media, which includes all 6C/Colon 1B media components minus the L-WRN conditioned media. The 485176-168-R4-J1-PDC was cultured in PANC media, which includes all 6C/Colon 1B media plus 100 ng/mL human FGF-10 (PeproTech, cat. 100-26), 500 nM SB-431542 (Selleckchem, cat. S1067), and 10 nM gastrin (Tocris Bioscience, cat. 3006). […]

[1] = second compound 0.0316 µM, first compound 0.0316 µM
[2] = second compound 0.0316 µM, first compound 0.1 µM
[3] = second compound 0.0316 µM, first compound 0.316 µM
[4] = second compound 0.0316 µM, first compound 1 µM
[5] = second compound 0.0316 µM, first compound 3.16 µM
[6] = second compound 0.0316 µM, first compound 10 µM
[7] = second compound 0.1 µM, first compound 0.0316 µM
[8] = second compound 0.1 µM, first compound 0.1 µM
[9] = second compound 0.1 µM, first compound 0.316 µM
[10] = second compound 0.1 µM, first compound 1 µM
[11] = second compound 0.1 µM, first compound 3.16 µM
[12] = second compound 0.1 µM, first compound 10 µM
[13] = second compound 0.316 µM, first compound 0.0316 µM
[14] = second compound 0.316 µM, first compound 0.1 µM
[15] = second compound 0.316 µM, first compound 0.316 µM
[16] = second compound 0.316 µM, first compound 1 µM
[17] = second compound 0.316 µM, first compound 3.16 µM
[18] = second compound 0.316 µM, first compound 10 µM
[19] = second compound 1 µM, first compound 0.0316 µM
[20] = second compound 1 µM, first compound 0.1 µM
[21] = second compound 1 µM, first compound 0.316 µM
[22] = second compound 1 µM, first compound 1 µM
[23] = second compound 1 µM, first compound 3.16 µM
[24] = second compound 1 µM, first compound 10 µM
[25] = second compound 3.16 µM, first compound 0.0316 µM
[26] = second compound 3.16 µM, first compound 0.1 µM
[27] = second compound 3.16 µM, first compound 0.316 µM
[28] = second compound 3.16 µM, first compound 1 µM
[29] = second compound 3.16 µM, first compound 3.16 µM
[30] = second compound 3.16 µM, first compound 10 µM
[31] = second compound 10 µM, first compound 0.0316 µM
[32] = second compound 10 µM, first compound 0.1 µM
[33] = second compound 10 µM, first compound 0.316 µM
[34] = second compound 10 µM, first compound 1 µM
[35] = second compound 10 µM, first compound 3.16 µM
[36] = second compound 10 µM, first compound 10 µM
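Further: spheroids exposed to compound for 7 days before readout.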
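Wherever viability, T/C is given: 100% = DMSO vehicle control luminescence.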

For Cc1nc(N2CCC3(CC2)COC(C)C3N)c(CO)nc1Sc1ccnc(N)c1Cl (stereo unspecified) + C#Cc1c(F)ccc2cc(O)cc(-c3ncc4c(N5CC6CCC(C5)N6)nc(OCC56CCCN5CC(F)C6)nc4c3F)c12, the IC50 (second compound 0.0316 µM) was 2.29 µM, the IC50 (second compound 0.1 µM) was 2.35 µM and the IC50 (second compound 0.316 µM) was 0.827 µM. The IC50 (second compound 1 µM) was 0.921 µM, the IC50 (second compound 3.16 µM) was 0.4 µM and the IC50 (second compound 10 µM) was 0.0959 µM. The viability, T/C [1] was 92%, the viability, T/C [2] was 85.2% and the viability, T/C [3] was 79.8%. It also gave a viability, T/C [4] of 55.2%, a viability, T/C [5] of 51% and a viability, T/C [6] of 42.3%. The viability, T/C [7] was 98.4%, the viability, T/C [8] was 89.7% and the viability, T/C [9] was 71.8%. The viability, T/C [10] was 62.5%, the viability, T/C [11] was 45% and the viability, T/C [12] was 36.9%. For the same compound, the viability, T/C [13] was 89.2%, the viability, T/C [14] was 81.4% and the viability, T/C [15] was 47.3%. For the same compound, the viability, T/C [16] was 51.8%, the viability, T/C [17] was 45.2% and the viability, T/C [18] was 28.8%. The viability, T/C [19] was 80%, the viability, T/C [20] was 70.5% and the viability, T/C [21] was 58.9%. It also gave a viability, T/C [22] of 49.1%, a viability, T/C [23] of 39.4% and a viability, T/C [24] of 26.2%. For the same compound, the viability, T/C [25] was 66.1%, the viability, T/C [26] was 50.8% and the viability, T/C [27] was 54.3%. It also gave a viability, T/C [28] of 46.6%, a viability, T/C [29] of 33.6% and a viability, T/C [30] of 24%. It also gave a viability, T/C [31] of 61.1%, a viability, T/C [32] of 45.5% and a viability, T/C [33] of 44%. For the same compound, the viability, T/C [34] was 32.1%, the viability, T/C [35] was 22% and the viability, T/C [36] was 21.3%.
For NC1c2ccccc2OC12CCN(c1cnc3c(N4CCCc5ncccc54)n[nH]c3n1)CC2 (stereo unspecified) + C#Cc1c(F)ccc2cc(O)cc(-c3ncc4c(N5CC6CCC(C5)N6)nc(OCC56CCCN5CC(F)C6)nc4c3F)c12, the IC50 (second compound 0.0316 µM) was 0.363 µM, the IC50 (second compound 0.1 µM) was 0.149 µM and the IC50 (second compound 0.316 µM) was 0.157 µM. The IC50 (second compound 1 µM) was 0.0846 µM, the IC50 (second compound 3.16 µM) was less than 0.0316 µM and the IC50 (second compound 10 µM) was less than 0.0316 µM. It also gave a viability, T/C [1] of 58.8%, a viability, T/C [2] of 59.1% and a viability, T/C [3] of 50.1%. It also gave a viability, T/C [4] of 41.8%, a viability, T/C [5] of 35.2% and a viability, T/C [6] of 31.3%. It also gave a viability, T/C [7] of 65.7%, a viability, T/C [8] of 55.6% and a viability, T/C [9] of 43.8%. It also gave a viability, T/C [10] of 32.5%, a viability, T/C [11] of 36.8% and a viability, T/C [12] of 28.4%. It also gave a viability, T/C [13] of 63.6%, a viability, T/C [14] of 58.2% and a viability, T/C [15] of 38.2%. The viability, T/C [16] was 33%, the viability, T/C [17] was 26.6% and the viability, T/C [18] was 21%. The viability, T/C [19] was 54.3%, the viability, T/C [20] was 49.7% and the viability, T/C [21] was 32%. For the same compound, the viability, T/C [22] was 27.2%, the viability, T/C [23] was 27.7% and the viability, T/C [24] was 20.2%. It also gave a viability, T/C [25] of 51.2%, a viability, T/C [26] of 35.9% and a viability, T/C [27] of 35%. It also gave a viability, T/C [28] of 29.3%, a viability, T/C [29] of 26.6% and a viability, T/C [30] of 18.8%. For the same compound, the viability, T/C [31] was 39%, the viability, T/C [32] was 31% and the viability, T/C [33] was 24.1%. The viability, T/C [34] was 23.9%, the viability, T/C [35] was 18.6% and the viability, T/C [36] was 16.9%.
Work on Nc1ccn(C2OC(CO)C(O)C2(F)F)c(=O)n1 (stereo unspecified) + C#Cc1c(F)ccc2cc(O)cc(-c3ncc4c(N5CC6CCC(C5)N6)nc(OCC56CCCN5CC(F)C6)nc4c3F)c12 yielded an IC50 (second compound 0.0316 µM) greater than 1 µM, an IC50 (second compound 0.1 µM) greater than 1 µM and an IC50 (second compound 0.316 µM) greater than 1 µM. For the same compound, the IC50 (second compound 1 µM) was greater than 1 µM, the IC50 (second compound 3.16 µM) was greater than 1 µM and the IC50 (second compound 10 µM) was greater than 1 µM. For the same compound, the viability, T/C (second compound 0.0316 µM, first compound 0.00316 µM) was 95%, the viability, T/C (second compound 0.0316 µM, first compound 0.01 µM) was 95.6% and the viability, T/C [1] was 86%. It also gave a viability, T/C [2] of 79.5%, a viability, T/C [3] of 76% and a viability, T/C [4] of 72.6%. For the same compound, the viability, T/C (second compound 0.1 µM, first compound 0.00316 µM) was 106%, the viability, T/C (second compound 0.1 µM, first compound 0.01 µM) was 96.6% and the viability, T/C [7] was 80.4%. It also gave a viability, T/C [8] of 74.9%, a viability, T/C [9] of 74.9% and a viability, T/C [10] of 78.5%. For the same compound, the viability, T/C (second compound 0.316 µM, first compound 0.00316 µM) was 98.9%, the viability, T/C (second compound 0.316 µM, first compound 0.01 µM) was 93.2% and the viability, T/C [13] was 60.9%. It also gave a viability, T/C [14] of 74.8%, a viability, T/C [15] of 75.8% and a viability, T/C [16] of 64.7%. The viability, T/C (second compound 1 µM, first compound 0.00316 µM) was 98.6%, the viability, T/C (second compound 1 µM, first compound 0.01 µM) was 82.5% and the viability, T/C [19] was 60.1%. It also gave a viability, T/C [20] of 76.9%, a viability, T/C [21] of 75.5% and a viability, T/C [22] of 54.2%. It also gave a viability, T/C (second compound 3.16 µM, first compound 0.00316 µM) of 82.6%, a viability, T/C (second compound 3.16 µM, first compound 0.01 µM) of 70.1% and a viability, T/C [25] of 69.5%. The viability, T/C [26] was 67.1%, the viability, T/C [27] was 68% and the viability, T/C [28] was 54.1%. It also gave a viability, T/C (second compound 10 µM, first compound 0.00316 µM) of 76.3%, a viability, T/C (second compound 10 µM, first compound 0.01 µM) of 67.1% and a viability, T/C [31] of 52.6%. It also gave a viability, T/C [32] of 54.9%, a viability, T/C [33] of 48.5% and a viability, T/C [34] of 49.1%.
